≈ marks a conversion by molar mass, not a printed value. Like-named read-outs stand apart in the source and are kept apart here.
Legend:
S. aureus NRS11 (Mec^S) = test: MIC against S. aureus NRS11 (Table 13); type: cell-based, Staphylococcus aureus; conditions: for MIC: compounds dissolved in DMSO or 1% sodium carbonate
Description: All recited compounds were dissolved in DMSO or in 1% sodium carbonate and transferred to micro titer plates to final concentrations of 1000 μg/mL.

S. aureus NRS100 (Mec^R) = test: MIC against S. aureus NRS100 (Table 14); type: cell-based, Staphylococcus aureus; conditions: for MIC: compounds dissolved in DMSO or 1% sodium carbonate
Description: The recited compounds were dissolved in DMSO or in 1% sodium carbonate and transferred into micro titer plate to final concentration of 1000 μg/mL.

[1] = molecular target: OXA-10 (class D β-lactamase) (Pseudomonas aeruginosa, UniProt P14489); test: β-Lactamase assay (nitrocefin colour change), OXA-10; type: biochemical; conditions: Table 10; class symbols x/xx/xxx, key not given
Description: (§1) β-Lactamase Assays (TEM-1, P99, and OXA-10): The activity of the compounds of the invention (inhibitors) toward β-lactamases was evaluated using 96 well plates. The reaction mixture included 10 mM sodium phosphate, pH 7.0, 150 mM sodium chloride, 0.01% Triton X-100, 100 μM nitrocefin, 10 nM of β-lactamases (class A: TEM-1; class C: P99, or class D: OXA-10), and variable concentrations of the inhibitors in a total volume of 100 μL. β-Lactamases were pre-incubated with the compounds at room temperature for 5 minutes, and the assay was initiated by the addition of nitrocefin. The inhibition of the enzyme activity by the compounds was determined by monitoring color change (from yellow to red) of nitrocefin after 20 minutes. Stock solutions of the compounds were prepared in dimethyl sulfoxide (DMSO). No more than 5% DMSO was present in assays, unless noted otherwise. B1aR Assay: The surface domain of B1aR (1 μM) was added to each inhibitor (at various concentrations) in 100 mM sodium phosphate, 50 mM sodium bicarbonate, at pH 7.0. The reaction mixtures were incubated at room temperature for 20 minutes. BOCILLIN FL, a fluorogenic ligand, was added to a concentration of 20 μM in a final volume of 20 μL. The mixtures were incubated at 37° C. for 5 minutes, at which point the reactions were quenched by the addition of 15 μL of the SDS sample buffer (125 mM Tris, 4% SDS, 20% glycerol, 2% 2-mercaptoethanol, pH 6.8), and were boiled for 4 minutes. The samples were loaded onto 15% SDS-PAGE, the gel was developed and scanned using a Storm 840® Fluorimager. The fluorescent bands of BOCILLIN FL-labeled B1aR^S were analyzed by Image Quant 5.2 software. PBP2 Assay: The PBP2 assay was performed according to the methods of Villegas-Esterada et al. (J. Am. Chem. Soc. 2008, 130, 9212-9213).

[2] = molecular target: TEM-1 (class A β-lactamase) (Escherichia coli, UniProt P62593); test: β-Lactamase assay (nitrocefin colour change), TEM-1; type: biochemical; conditions: Table 10; class symbols x/xx/xxx, key not given
Description: as §1

[3] = molecular target: P99 (class C β-lactamase) (Enterobacter cloacae, UniProt P05364); test: β-Lactamase assay (nitrocefin colour change), P99; type: biochemical; conditions: Table 10; class symbols x/xx/xxx, key not given
Description: as §1

[4] = Staphylococcus aureus, read-out: MIC

Chain of P99 (class C β-lactamase) (P05364 21-381): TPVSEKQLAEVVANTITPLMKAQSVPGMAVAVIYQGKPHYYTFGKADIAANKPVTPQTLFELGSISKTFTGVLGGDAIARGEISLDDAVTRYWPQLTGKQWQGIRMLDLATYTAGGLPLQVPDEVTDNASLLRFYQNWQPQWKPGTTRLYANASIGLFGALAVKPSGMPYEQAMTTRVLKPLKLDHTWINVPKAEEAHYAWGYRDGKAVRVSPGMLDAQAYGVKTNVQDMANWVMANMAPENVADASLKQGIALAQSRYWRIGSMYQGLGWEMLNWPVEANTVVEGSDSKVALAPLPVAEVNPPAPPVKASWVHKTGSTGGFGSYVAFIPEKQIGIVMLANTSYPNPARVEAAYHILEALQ
Chain of TEM-1 (class A β-lactamase) (P62593 24-286 limits assumed): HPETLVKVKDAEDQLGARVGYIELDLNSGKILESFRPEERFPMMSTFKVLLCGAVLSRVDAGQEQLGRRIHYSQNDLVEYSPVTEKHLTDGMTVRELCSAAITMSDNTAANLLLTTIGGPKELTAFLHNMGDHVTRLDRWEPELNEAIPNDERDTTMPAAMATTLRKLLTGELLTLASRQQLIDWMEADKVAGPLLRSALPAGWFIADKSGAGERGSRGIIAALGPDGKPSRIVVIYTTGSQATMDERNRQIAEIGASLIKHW
Chain of OXA-10 (class D β-lactamase) (P14489 20-266, species assumed): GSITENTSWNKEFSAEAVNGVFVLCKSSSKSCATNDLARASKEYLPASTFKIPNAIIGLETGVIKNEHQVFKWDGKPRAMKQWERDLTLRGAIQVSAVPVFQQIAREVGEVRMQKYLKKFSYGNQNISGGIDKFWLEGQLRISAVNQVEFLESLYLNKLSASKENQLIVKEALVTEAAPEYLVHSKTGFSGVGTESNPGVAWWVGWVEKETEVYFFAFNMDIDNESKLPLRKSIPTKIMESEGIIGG

CC(Oc1ccc(NC(=O)c2ccccc2C(=O)O)cc1Cl)c1ccccc1 (centres unmarked) [Compound 379]
MIC (S. aureus NRS11 (Mec^S)): >2,000 μg/mL | MIC (S. aureus NRS100 (Mec^R)): >2,000 μg/mL

O=C(O)c1ccncc1C(=O)Nc1ccc(OCc2cccc(OC(F)(F)F)c2)c(Cl)c1 [Compound 424]
MIC (S. aureus NRS100 (Mec^R); [4]): > 250 µg/mL

O=C(O)CC1(CC(=O)Nc2ccc(Cl)c(C(F)(F)F)c2)CCCC1 [Compound 246]
OXA-10 [1]: xx

O=C1C2=C(SCCS2)C(=O)N1C(CO)[C@H](O)c1ccccc1 (some centres unmarked) [Compound 138]
TEM-1 [2]: xxx | P99 [3]: xxx

O=C(O)c1c(Cl)c(Cl)c(Cl)c(Cl)c1C(=O)Nc1ccc(Cl)c(C(F)(F)F)c1 [Compound 258]
TEM-1 [2]: xxx | P99 [3]: xx | OXA-10 [1]: xx

O=C1C2=C(SCCS2)C(=O)N1[C@@H](CO)[C@@H](O)c1ccc([N+](=O)[O-])cc1 [Compound 140]
TEM-1 [2]: xx | P99 [3]: xx | OXA-10 [1]: xx

CCCCOC(=O)c1ccc(NC(=O)c2c(F)c(F)c(F)c(F)c2C(=O)O)cc1 [Compound 332]
MIC (S. aureus NRS11 (Mec^S); [4]): 2000 µg/mL (≈ 4840 µM) | MIC (S. aureus NRS100 (Mec^R); [4]): 2000 µg/mL (≈ 4840 µM)

NC(=O)C1=C(C(=O)O)SCCS1 [Compound 120]
OXA-10 [1]: xx

COCCOCCOc1ccc(NC(=O)c2c(F)c(F)c(F)c(F)c2C(=O)O)cn1 [Compound 401]
MIC (S. aureus NRS11 (Mec^S)): >2,000 μg/mL | MIC (S. aureus NRS100 (Mec^R)): >2,000 μg/mL

CCCCOC(=O)c1ccc(NC(=O)N(C)c2ccccc2C(=O)O)cc1 [Compound 326]
MIC (S. aureus NRS11 (Mec^S)): 2,000 μg/mL | MIC (S. aureus NRS100 (Mec^R)): 2,000 μg/mL

COCCOCCOc1ccc(NC(=O)c2c(Br)c(Br)c(Br)c(Br)c2C(=O)O)cn1 [Compound 403]
MIC (S. aureus NRS11 (Mec^S)): >2,000 μg/mL | MIC (S. aureus NRS100 (Mec^R)): >2,000 μg/mL

O=C(O)c1c(F)c(F)c(F)c(F)c1C(=O)Nc1ccc(OCC(O)COCC2CC2)c(Cl)c1 (centres unmarked) [Compound 354]
MIC (S. aureus NRS11 (Mec^S)): 500 µg/mL (≈ 1020 µM) | MIC (S. aureus NRS100 (Mec^R)): 500 µg/mL (≈ 1020 µM)

CCCCOC(=O)c1ccc(NC(=O)c2ccccc2C(=O)O)cc1 [Compound 331]
MIC (S. aureus NRS11 (Mec^S); [4]): 2000 µg/mL (≈ 5860 µM) | MIC (S. aureus NRS100 (Mec^R); [4]): 2000 µg/mL (≈ 5860 µM)

O=C(O)c1c(Cl)c(Cl)c(Cl)c(Cl)c1C(=O)Nc1ccc(CO)cc1 [Compound 254]
OXA-10 [1]: xx

O=C(O)c1c(F)c(F)c(F)c(F)c1C(=O)Nc1ccc(OCc2ccccc2)nc1 [Compound 363]
MIC (S. aureus NRS11 (Mec^S)): >2,000 μg/mL | MIC (S. aureus NRS100 (Mec^R)): >2,000 μg/mL

Cc1ccccc1COc1ccc(NC(=O)c2ccccc2C(=O)O)cc1Cl [Compound 383]
MIC (S. aureus NRS11 (Mec^S)): 128 µg/mL (≈ 323 µM) | MIC (S. aureus NRS100 (Mec^R)): 128 µg/mL (≈ 323 µM)

CCCCOC(=O)c1ccc(NC(=O)C2CCC(C)CC2C(=O)O)cc1 (centres unmarked) [Compound 337]
MIC (S. aureus NRS11 (Mec^S)): 2,000 μg/mL | MIC (S. aureus NRS100 (Mec^R)): 2,000 μg/mL

CC(=O)OCC1=C(C(=O)O)N2C(=O)C(N3C(=O)C4=C(SCCS4)C3=O)C2SC1 (centres unmarked) [Compound 118]
P99 [3]: xxx

O=C(O)c1c(Cl)c(Cl)c(Cl)c(Cl)c1C(=O)Nc1cccc(Oc2ccccc2)c1 [Compound 268]
TEM-1 [2]: xxx | P99 [3]: xx

O=C(O)c1c(Br)c(Br)c(Br)c(Br)c1C(=O)Nc1cccc(C(F)(F)F)c1 [Compound 196]
TEM-1 [2]: xx | P99 [3]: xx

CCCCCCCCOc1ccc(N(C)C(=O)c2c(F)c(F)c(F)c(F)c2C(=O)O)cc1 [Compound 305]
P99 [3]: xx | OXA-10 [1]: xx | MIC (S. aureus NRS100 (Mec^R); [4]): 16 µg/mL (≈ 35.1 µM)

CCCCCCCCOc1ccc(N)cc1Cl [Compound 299]
MIC (S. aureus NRS100 (Mec^R); [4]): 16 µg/mL (≈ 62.6 µM)

CCCCCCCCOc1ccc(NC(=O)c2c(F)c(F)c(F)c(F)c2C(=O)O)c[n+]1[O-] [Compound 359]
MIC (S. aureus NRS11 (Mec^S); [4]): 1000 µg/mL (≈ 2180 µM) | MIC (S. aureus NRS100 (Mec^R); [4]): 1000 µg/mL (≈ 2180 µM)

CCCCOC(=O)c1ccc(NC(=O)c2c(Br)c(Br)c(Br)c(Br)c2C(=O)O)cc1 [Compound 334]
MIC (S. aureus NRS11 (Mec^S); [4]): 128 µg/mL (≈ 195 µM) | MIC (S. aureus NRS100 (Mec^R); [4]): 128 µg/mL (≈ 195 µM)

CCCCCCCCOc1ccc(NC(=O)c2ccccc2C(=O)O)cn1 [Compound 343]
MIC (S. aureus NRS11 (Mec^S); [4]): 256 µg/mL (≈ 691 µM) | MIC (S. aureus NRS100 (Mec^R); [4]): 256 µg/mL (≈ 691 µM)

CC(C)C[C@@H](C(=O)O)C(C(=O)O)C(=O)OC(C)(C)C (some centres unmarked) [Compound 330]
MIC (S. aureus NRS11 (Mec^S)): 2,000 μg/mL | MIC (S. aureus NRS100 (Mec^R)): 2,000 μg/mL

CCCCCCCCOc1ccc(NC(=O)c2c(Cl)c(Cl)c(Cl)c(Cl)c2C(=O)O)c[n+]1[O-] [Compound 358]
OXA-10 [1]: xxx

CCCCCCCCOc1ccc(NC(=O)c2c(F)c(F)c(F)c(F)c2C(=O)O)cn1 [Compound 344]
MIC (S. aureus NRS11 (Mec^S); [4]): 256 µg/mL (≈ 579 µM) | MIC (S. aureus NRS100 (Mec^R); [4]): 256 µg/mL (≈ 579 µM)

CCCCCCCCOc1ccc(NC(=O)c2ccccc2C(=O)O)c[n+]1[O-] [Compound 357]
MIC (S. aureus NRS11 (Mec^S); [4]): > 2000 µg/mL | MIC (S. aureus NRS100 (Mec^R); [4]): > 2000 µg/mL

O=C(O)c1cccc([N+](=O)[O-])c1C(=O)Nc1ccc(OCc2cccc(OC(F)(F)F)c2)c(Cl)c1 [Compound 421]
MIC (S. aureus NRS100 (Mec^R); [4]): 250 µg/mL (≈ 489 µM)

CCCCOC(=O)c1ccc(NC(=O)Nc2ccccc2C(=O)O)cc1 [Compound 325]
MIC (S. aureus NRS11 (Mec^S)): 256 µg/mL (≈ 718 µM) | MIC (S. aureus NRS100 (Mec^R)): 256 µg/mL (≈ 718 µM)

O=C(O)c1c(Br)c(Br)c(Br)c(Br)c1C(=O)Nc1ccc(Cl)c(C(F)(F)F)c1 [Compound 89]
TEM-1 [2]: xx | P99 [3]: xxx | OXA-10 [1]: xxx

CCCCCCCCOc1ccc(NC(=O)c2c(Br)c(Br)c(Br)c(Br)c2C(=O)O)c[n+]1[O-] [Compound 360]
TEM-1 [2]: xx | OXA-10 [1]: xxx

CC(Oc1ccc(NC(=O)c2c(Cl)c(Cl)c(Cl)c(Cl)c2C(=O)O)cc1Cl)c1ccccc1 (centres unmarked) [Compound 381]
OXA-10 [1]: xxx | MIC (S. aureus NRS11 (Mec^S); [4]): 16 µg/mL (≈ 30 µM) | inhibitory properties (in words) (S. aureus NRS11 (Mec^S); Table 13): significant inhibitory properties | MIC (S. aureus NRS100 (Mec^R); [4]): 32 µg/mL (≈ 60 µM) | inhibitory activity (in words) (S. aureus NRS100 (Mec^R); Table 14): significant inhibitory activity

O=C1c2c(Br)c(Br)c(Br)c(Br)c2C(=O)N1c1ccc(OCc2ccccc2)c(Cl)c1 [Compound 227]
TEM-1 [2]: xxx | OXA-10 [1]: xxx

CCCCCCCCOc1ccc(N2C(=O)c3c(Br)c(Br)c(Br)c(Br)c3C2=O)cc1 [Compound 230]
MIC (S. aureus NRS100 (Mec^R); [4]): > 16 µg/mL

O=C(O)c1cccnc1C(=O)Nc1ccc(OCc2cccc(OC(F)(F)F)c2)c(Cl)c1 [Compound 423]
MIC (S. aureus NRS100 (Mec^R); [4]): 250 µg/mL (≈ 536 µM)

CCCCCCCCOc1ccc(N(C)C(=O)c2c(Br)c(Br)c(Br)c(Br)c2C(=O)O)cc1 [Compound 307]
OXA-10 [1]: xxx

O=C(Nc1ccc(Cl)c(C(F)(F)F)c1)c1cccc([N+](=O)[O-])c1C(=O)O [Compound 86]
TEM-1 [2]: xx

O=C(O)c1cccc([N+](=O)[O-])c1C(=O)Nc1ccc(OCc2ccccc2)nc1 [Compound 392]
MIC (S. aureus NRS11 (Mec^S)): 500 µg/mL (≈ 1270 µM) | MIC (S. aureus NRS100 (Mec^R)): 500 µg/mL (≈ 1270 µM)

CCCCCCCCOc1ccc(N(C)C(=O)c2c(Cl)c(Cl)c(Cl)c(Cl)c2C(=O)OC)cc1 [Compound 282]
OXA-10 [1]: xxx

O=C(O)c1c(Br)c(Br)c(Br)c(Br)c1C(=O)Nc1ccc(CO)cc1 [Compound 223]
TEM-1 [2]: xxx | P99 [3]: xxx | OXA-10 [1]: xxx

COCCOCCOc1ccc(NC(=O)c2c(Br)c(Br)c(Br)c(Br)c2C(=O)O)c[n+]1[O-] [Compound 410]
MIC (S. aureus NRS11 (Mec^S); [4]): 500 µg/mL (≈ 723 µM) | MIC (S. aureus NRS100 (Mec^R); [4]): 500 µg/mL (≈ 723 µM)

CC(Oc1ccc(NC(=O)c2c(C(=O)O)cccc2[N+](=O)[O-])cc1Cl)c1ccccc1 (centres unmarked) [Compound 391]
MIC (S. aureus NRS11 (Mec^S)): 500 µg/mL (≈ 1130 µM) | MIC (S. aureus NRS100 (Mec^R)): 500 µg/mL (≈ 1130 µM)

N#Cc1cccc(NC(=O)c2c(Br)c(Br)c(Br)c(Br)c2C(=O)[O-])c1.[Na+] [Compound 201]
TEM-1 [2]: xx | P99 [3]: xxx | OXA-10 [1]: xx

Reference: patent publication US8859620B2, “Phthalanilate compounds and methods of use” (University of Notre Dame du Lac, priority 2009, dated 2014)
